Experimental findings from patent US11773057B2, “Naphthalenesulfonamide compound, preparation method, and application” (CHINA PHARMACEUTICAL UNIVERSITY, priority 2019, dated 2023) are described below.

The target of one test is T1, Keap1-Nrf2 PPI (Keap1 kelch domain protein, FITC labeled Nrf2 9 peptide) (Homo sapiens, UniProt Q14145).
T1 construct: 10 μL 12 nm Keap1 kelch domain protein
T1 sequence (Q14145 321-609 limits assumed): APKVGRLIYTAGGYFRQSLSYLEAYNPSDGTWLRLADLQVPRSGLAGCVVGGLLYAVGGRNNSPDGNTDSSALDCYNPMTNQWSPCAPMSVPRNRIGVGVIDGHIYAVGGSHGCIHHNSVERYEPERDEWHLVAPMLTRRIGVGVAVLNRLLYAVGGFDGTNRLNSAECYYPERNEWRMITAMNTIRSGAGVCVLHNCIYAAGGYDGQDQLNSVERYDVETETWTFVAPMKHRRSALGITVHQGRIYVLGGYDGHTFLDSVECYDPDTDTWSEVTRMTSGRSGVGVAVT
In words: Fluorescence polarization based Keap1-Nrf2 PPI competitive inhibition experiment (FP experiment). Format: binding. The settings on record: FP experiment; general formula I / II compounds. As for the experimental part: 1. Keap1-Nrf2 PPI Competitive Inhibition Test Based on Fluorescence Polarization (FP Experiment)
The 384-well blackboard model 3676 produced by Corning is used in FP experiment, with a total volume of reaction of 40 μL. 20 μL compound, 10 μL 4 nm FITC labeled Nrf2 9 peptide, 10 μL 12 nm Keap1 kelch domain protein are added to the well in order. 20 μL 200 nM DDO-1002, 10 μL 4 nM of the FITC-labeled Nrf2 9 peptide, 10 μL 12 nM of Keap1 Ketch domain protein are used in the positive control; 20 μL HEPES buffer, 10 μL 4 nM of the FITC-labeled Nrf2 9 peptide, 10 μL, 12 nM of Keap1 Kelch domain protein are used in the negative control; 10 μL 4 nM of the FITC-labeled Nrf2 9 peptide, 30 μL of HEPES buffer are used in the blank control. After addition is complete, they are incubated for 30 min at room temperature. The detection instrument is a SpectraMax Multi-Mode Microplate Reader (Molecular Devices), the excitation light wavelength selected is 485 nm, the emission light wavelength is 545 nm, and the fluorescence intensity in the horizontal and vertical directions is detected to calculate the polarization value. The inhibition rate is calculated as: inhibition %=[…]/(Pmax−Pmin) wherein Pobs is the polarization value of the compound well, Pmax is the polarization value of the negative control well, and Pmin is the polarization value of the blank well. Data treatment is performed using GraphPad Prism, and IC50 of the compound is calculated using a concentration-inhibition rate curve. The IC50 values for each compound are as previously described.
On the technique in general: Polarisation of emitted light reports the rotation of a fluorescent probe.
Compound `COc1ccc(S(=O)(=O)Nc2ccc(N(Cc3ccccc3)[C@@H](C)CC(=O)O)c3ccccc23)cc1` [DDO-1160] came in with a concentration for half-maximal inhibition (IC50) of 860 nM.

`COc1ccc(S(=O)(=O)N(CC(=O)O)c2ccc(N(Cc3ccccc3)[C@@H](C)CC(=O)O)c3ccccc23)cc1` [DDO-1161, (S)-3-(benzyl(4-((N-(carboxymethyl)-4methoxyphenyl)sulfonamido)naphthalen-1-yl) (benzyl)amino) butanoic acid] showed a concentration for half-maximal inhibition (IC50) of 108 nM.

Take `COc1ccc(S(=O)(=O)Nc2ccc(N(Cc3ccc(C)cc3)[C@@H](C)CC(=O)O)c3ccccc23)cc1` [DDO-1162, 3-((4-((4-methoxyphenyl)sulfonamido)naphthalen-1-yl) (4-methylbenzyl)amino) butanoic acid]: the IC50 stood at 1910 nM.

In turn, `COc1ccc(S(=O)(=O)N(CC(=O)O)c2ccc(N(Cc3ccc(C)cc3)[C@@H](C)CC(=O)O)c3ccccc23)cc1` [DDO-1163] showed a concentration for half-maximal inhibition (IC50) of 152 nM.

As for `COc1ccc(S(=O)(=O)Nc2ccc(N(Cc3ccc(Cl)cc3)[C@@H](C)CC(=O)O)c3ccccc23)cc1` [DDO-1164, (S)-3-((4-chlorobenzyl) (4-((4-methoxyphenyl)sulfonamido)naphthalen-1-yl)amino) butanoic acid], the concentration for half-maximal inhibition (IC50) is 4100 nM.

For the compound `COc1ccc(S(=O)(=O)N(CC(=O)O)c2ccc(N(Cc3ccc(Cl)cc3)[C@@H](C)CC(=O)O)c3ccccc23)cc1` [DDO-1165, (S)-3-((4-((N-(carboxymethyl)-4-methoxyphenyl)sulfonamido)naphthalen-1-yl) (4-chlorobenzyl)amino) butanoic acid], the half-inhibitory concentration (IC50) worked out at 272 nM.

The compound `COc1ccc(S(=O)(=O)Nc2ccc(N(Cc3ccc(F)cc3)[C@@H](C)CC(=O)O)c3ccccc23)cc1` [DDO-1166, (S)-3-((4-fluorobenzyl) (4-((4-methoxyphenyl)sulfonamido)naphthalen-1-yl)amino) butanoic acid] showed an IC50 of 2150 nM.

Consider `COc1ccc(S(=O)(=O)N(CC(=O)O)c2ccc(N(Cc3ccc(F)cc3)[C@@H](C)CC(=O)O)c3ccccc23)cc1` [DDO-1167, (S)-3-((4-((N-(carboxymethyl)-4-methoxyphenyl)sulfonamido)naphthalen-1-yl) (4-fluorobenzyl)amino) butanoic acid], for which the half-maximal inhibitory concentration (IC50) worked out at 176 nM.

Compound `COc1ccc(S(=O)(=O)Nc2ccc(N(Cc3cccc(C)c3)[C@@H](C)CC(=O)O)c3ccccc23)cc1` [DDO-1168, (S)-3-((4-((4-methoxyphenyl)sulfonamido)naphthalen-1-yl) (3-methylbenzyl)amino) butanoic acid] yielded a concentration for half-maximal inhibition (IC50) of 1660 nM.

Take `COc1ccc(S(=O)(=O)N(CC(=O)O)c2ccc(N(Cc3cccc(C)c3)[C@@H](C)CC(=O)O)c3ccccc23)cc1` [DDO-1169]: the IC50 stood at 205 nM.

In turn, `COc1ccc(S(=O)(=O)Nc2ccc(N(Cc3ccccc3C)[C@@H](C)CC(=O)O)c3ccccc23)cc1` [DDO-1170, (S)-3-((4-((4-methoxyphenyl)sulfonamido)naphthalen-1-yl) (2-methylbenzyl)amino) butanoic acid] came in with an IC50 of 1090 nM.

`COc1ccc(S(=O)(=O)N(CC(=O)O)c2ccc(N(Cc3ccccc3C)[C@@H](C)CC(=O)O)c3ccccc23)cc1` [DDO-1171] displayed an IC50 of 113 nM.

As for `COc1ccc(S(=O)(=O)Nc2ccc(N(Cc3cccc(Cl)c3)[C@@H](C)CC(=O)O)c3ccccc23)cc1` [DDO-1172, (S)-3-((3-chlorobenzyl) (4-((4-methoxyphenyl)sulfonamido)naphthalen-1-yl)amino) butanoic acid], the IC50 worked out at 3780 nM.

`COc1ccc(S(=O)(=O)N(CC(=O)O)c2ccc(N(Cc3cccc(Cl)c3)[C@@H](C)CC(=O)O)c3ccccc23)cc1` [DDO-1173, (S)-3-((4-((N-(Carboxymethyl)-4-methoxyphenyl)sulfonamido)naphthalen-1-yl) (3-chlorobenzyl)amino) butanoic acid] came in with a 50% inhibitory concentration (IC50) of 180 nM.

Take `COc1ccc(S(=O)(=O)Nc2ccc(N(Cc3ccccc3Cl)[C@@H](C)CC(=O)O)c3ccccc23)cc1` [DDO-1174, (S)-3-((2-chlorobenzyl) (4-((4-methoxyphenyl)sulfonamido)naphthalen-1-yl)amino) butanoic acid]: the 50% inhibitory concentration (IC50) was 1600 nM.

On to `COc1ccc(S(=O)(=O)N(CC(=O)O)c2ccc(N(Cc3ccccc3Cl)[C@@H](C)CC(=O)O)c3ccccc23)cc1` [DDO-1175, (S)-3-((4-((N-(Carboxymethyl)-4-methoxyphenyl)sulfonamido)naphthalen-1-yl) (2-chlorobenzyl)amino) butanoic acid], for which the 50% inhibitory concentration (IC50) is 109 nM.

Turning to `COc1ccc(S(=O)(=O)Nc2ccc(N(Cc3cccc(F)c3)[C@@H](C)CC(=O)O)c3ccccc23)cc1` [DDO-1176, (S)-3-((3-fluorobenzyl) (4-((4-methoxyphenyl)sulfonamido)naphthalen-1-yl)amino) butanoic acid], the 50% inhibitory concentration (IC50) was found to be 2470 nM.

Regarding `COc1ccc(S(=O)(=O)N(CC(=O)O)c2ccc(N(Cc3cccc(F)c3)[C@@H](C)CC(=O)O)c3ccccc23)cc1` [DDO-1177, (S)-3-((4-((N-(carboxymethyl)-4-methoxyphenyl)sulfonamido)naphthalen-1-yl) (3-fluorobenzyl)amino) butanoic acid], the IC50 stood at 180 nM.

For `COc1ccc(S(=O)(=O)Nc2ccc(N(Cc3ccccc3F)[C@@H](C)CC(=O)O)c3ccccc23)cc1` [DDO-1178, (S)-3-((2-fluorobenzyl) (4-((4-methoxyphenyl)sulfonamido)naphthalen-1-yl)amino) butanoic acid], the IC50 is 460 nM.

For the compound `COc1ccc(S(=O)(=O)N(CC(=O)O)c2ccc(N(Cc3ccccc3F)[C@@H](C)CC(=O)O)c3ccccc23)cc1` [DDO-1179], the half-maximal inhibitory concentration (IC50) stood at 75 nM.

Staying with this test, now noted: FP experiment; general formula III compounds; unit inferred.
In turn, `C#CCN(c1ccc(NS(=O)(=O)c2ccc(OC)cc2)c2ccccc12)[C@@H](C)CC(=O)O` [DDO-1180] displayed a half-maximal inhibitory concentration (IC50) of 95 nM.

As for `C#CCN(c1ccc(NS(=O)(=O)c2ccccc2)c2ccccc12)[C@@H](C)CC(=O)O` [DDO-1186, (S)-3-((4-(phenylsulfonamido)naphthalen-1-yl)(prop-2-yn-1-yl)amino) butanoic acid], the IC50 turned out to be 8000 nM.

In turn, `C#CCN(c1ccc(NS(=O)(=O)c2ccc(NC(C)=O)cc2)c2ccccc12)[C@@H](C)CC(=O)O` [DDO-1188, (S)-3-((4-((4-acetamidophenyl)sulfonamido)naphthalen-1-yl) (prop-2-yn-1-yl)amino) butanoic acid] had an IC50 of 1460 nM.

For the compound `C#CCN(c1ccc(NS(=O)(=O)c2ccc(F)cc2)c2ccccc12)[C@@H](C)CC(=O)O` [DDO-1190, (S)-3-((4-((4-fluorophenyl)sulfonamido)naphthalen-1-yl)(prop-2-yn-1-yl)amino) butanoic acid], the half-maximal inhibitory concentration (IC50) came out at 4000 nM.

For the compound `C#CCN(c1ccc(NS(=O)(=O)c2ccc(Cl)cc2)c2ccccc12)[C@@H](C)CC(=O)O` [DDO-1192, (S)-3-((4-((4-chlorophenyl)sulfonamido)naphthalen-1-yl)(prop-2-yn-1-yl)amino) butanoic acid], the IC50 was found to be 1700 nM.

In turn, `C#CCN(c1ccc(NS(=O)(=O)c2ccc(C)cc2)c2ccccc12)[C@@H](C)CC(=O)O` [DDO-1194, (S)-3-((4-((4-methylphenyl)sulfonamido)naphthalen-1-yl)(prop-2-yn-1-yl)amino) butanoic acid] displayed a concentration for half-maximal inhibition (IC50) of 480 nM.

The test is the same for the next values; noted with them: FP experiment; general formula IV compounds.
In turn, `C#CCN(c1ccc(N(CC(=O)O)S(=O)(=O)c2ccc(OC)cc2)c2ccccc12)[C@@H](C)CC(=O)O` [DDO-1181] returned an IC50 of 68 nM.

In the case of `C#CCN(c1ccc(N(CC(=O)O)S(=O)(=O)c2ccccc2)c2ccccc12)[C@@H](C)CC(=O)O` [DDO-1187, (S)-3-((4-(N-(carboxymethyl)benzenesulfonamido)naphthalen-1-yl) (prop-2-yn-1-yl)amino) butanoic acid], the IC50 was 3000 nM.

In turn, `C#CCN(c1ccc(N(CC(=O)O)S(=O)(=O)c2ccc(NC(C)=O)cc2)c2ccccc12)[C@@H](C)CC(=O)O` [DDO-1189, (S)-3-((4-((4-acetamido-N-(carboxymethyl)phenyl)sulfonamido)naphthalen-1-yl)(prop-2-yn-1-yl)amino) butanoic acid] came in with a half-maximal inhibitory concentration (IC50) of 630 nM.

The compound `C#CCN(c1ccc(N(CC(=O)O)S(=O)(=O)c2ccc(F)cc2)c2ccccc12)[C@@H](C)CC(=O)O` [DDO-1191, (S)-3-((4-((N-(carboxymethyl)-4-fluorophenyl)sulfonamido)naphthalen-1-yl) (prop-2-yn-1-yl)amino) butanoic acid] displayed an IC50 of 2000 nM.

Regarding `C#CCN(c1ccc(N(CC(=O)O)S(=O)(=O)c2ccc(Cl)cc2)c2ccccc12)[C@@H](C)CC(=O)O` [DDO-1193, (S)-3-((4-((N-(Carboxymethyl)-4-chlorophenyl)sulfonamido)naphthalen-1-yl)(prop-2-yn-1-yl)amino) butanoic acid], the IC50 came out at 950 nM.

As to `C#CCN(c1ccc(N(CC(=O)O)S(=O)(=O)c2ccc(C)cc2)c2ccccc12)[C@@H](C)CC(=O)O` [DDO-1195, (S)-3-((4-((N-(Carboxymethyl)-4-methylphenyl)sulfonamide)naphthalen-1-yl)(prop-2-yn-1-yl)amino) butanoic acid], the half-inhibitory concentration (IC50) amounted to 110 nM.

In general, IC50 refers to the midpoint of a concentration-inhibition curve. A higher IC50 goes with weaker potency.
